Assay: Example 1: liver biomarkers (total bilirubin, ALT, AST, ALP) in short bowel syndrome patients, every four weeks for 24 weeks; also sorted by >5% change from baseline
Type: in vivo, Human
Set-up: AST (SGOT) Change from Baseline Median / ALT (SGPT) Median / TOTAL BILIRUBIN Median / TOTAL BILIRUBIN Change from Baseline Median / ALT (SGPT) Change from Baseline Median / AST (SGOT) Median: unit not given here
Conditions: for AST (SGOT) Change from Baseline Median / AST (SGOT) Median / TOTAL BILIRUBIN Change from Baseline Median / TOTAL BILIRUBIN Median / ALKALINE PHOSPHATASE Change from Baseline Median / ALT (SGPT) Change from Baseline Median / ALT (SGPT) Median: 0.10 mg/kg/day; for ALKALINE PHOSPHATASE change from baseline <−5%, number of patients / ALKALINE PHOSPHATASE change from baseline <−5%, percent of patients / ALKALINE PHOSPHATASE change from baseline >5%, number of patients / ALKALINE PHOSPHATASE change from baseline >5%, percent of patients / ALKALINE PHOSPHATASE change from baseline −5% <= and <=5%, number of patients / ALKALINE PHOSPHATASE change from baseline −5% <= and <=5%, percent of patients / ALT (SGPT) change from baseline <−5%, number of patients / ALT (SGPT) change from baseline <−5%, percent of patients / ALT (SGPT) change from baseline >5%, number of patients / ALT (SGPT) change from baseline >5%, percent of patients / ALT (SGPT) change from baseline −5% <= and <=5%, number of patients / ALT (SGPT) change from baseline −5% <= and <=5%, percent of patients / AST (SGOT) change from baseline <−5%, number of patients / AST (SGOT) change from baseline <−5%, percent of patients / AST (SGOT) change from baseline >5%, number of patients / AST (SGOT) change from baseline >5%, percent of patients / AST (SGOT) change from baseline −5% <= and <=5%, number of patients / AST (SGOT) change from baseline −5% <= and <=5%, percent of patients / TOTAL BILIRUBIN change from baseline <−5%, number of patients / TOTAL BILIRUBIN change from baseline <−5%, percent of patients / TOTAL BILIRUBIN change from baseline >5%, number of patients / TOTAL BILIRUBIN change from baseline >5%, percent of patients / TOTAL BILIRUBIN change from baseline −5% <= and <=5%, number of patients / TOTAL BILIRUBIN change from baseline −5% <= and <=5%, percent of patients: 0.1 mg/kg/day
Procedure: Human patients with short bowel syndrome were divided into three groups: a control group (16 total individuals) to receive placebo, an experimental group (35 total individuals) to receive teduglutide at 0.05 mg/kg/day throughout the study, and an experimental group (32 total individuals) to receive teduglutide at 0.1 mg/kg/day throughout the study. Patients were treated by subcutaneous injection of placebo or the appropriate dose of teduglutide. As individuals with short bowel syndrome are likely to experience associated liver and kidney disease, known biomarkers of liver and kidney function were monitored every four weeks, for 24 weeks. The liver biomarkers tested included total bilirubin, ALT and AST and ALP. The kidney biomarkers tested included urea nitrogen, creatinine and GFR. Before administration of placebo or teduglutide, diagnostic biomarker levels were tested to establish a baseline for each individual.
To visualize the effect of GLP-2 on the levels of the diagnostic biomarkers, the average change from baseline was calculated for the placebo and teduglutide treated groups for each visit after a baseline was established. The average change from baseline of each group is depicted in FIGS. 1-7. The numerical figures for each diagnostic biomarker at each time point are depicted in Table 1.
The efficacy of teduglutide in treating liver dysfunction was further tested by sorting the data into two groups: individuals with abnormal baseline values of liver diagnostic biomarkers; and individuals with normal baseline values of liver diagnostic biomarkers. The mean diagnostic biomarker change from baseline for these two groups is shown for ALT (FIGS. 5 and 6) and AST (FIGS. 7 and 8). […] These changes were significant when compared to baseline levels for the group, and when compared to placebo (see FIGS. 5 and 7).
The raw data for this sorting is reproduced in Table 2 below.

## CC[C@H](C)[C@H](NC(=O)[C@H](Cc1ccccc1)NC(=O)[C@H](CC(=O)O)NC(=O)[C@H](CCCNC(=N)N)NC(=O)[C@H](C)NC(=O)[C@H](C)NC(=O)[C@H](CC(C)C)NC(=O)[C@H](CC(N)=O)NC(=O)[C@H](CC(=O)O)NC(=O)[C@H](CC(C)C)NC(=O)[C@@H](NC(=O)[C@@H](NC(=O)[C@H](CC(N)=O)NC(=O)[C@H](CCSC)NC(=O)[C@H](CCC(=O)O)NC(=O)[C@H](CC(=O)O)NC(=O)[C@H](CO)NC(=O)[C@H](Cc1ccccc1)NC(=O)[C@H](CO)NC(=O)CNC(=O)[C@H](CC(=O)O)NC(=O)CNC(=O)[C@@H](N)Cc1c[nH]cn1)[C@@H](C)O)[C@@H](C)CC)C(=O)N[C@@H](CC(N)=O)C(=O)N[C@@H](Cc1c[nH]c2ccccc12)C(=O)N[C@@H](CC(C)C)C(=O)N[C@H](C(=O)N[C@@H](CCC(N)=O)C(=O)N[C@H](C(=O)N[C@@H](CCCCN)C(=O)N[C@H](C(=O)N[C@H](C(=O)N[C@@H](CC(=O)O)C(=O)O)[C@@H](C)O)[C@@H](C)CC)[C@@H](C)O)[C@@H](C)CC [teduglutide]
DW4
  AST (SGOT) Change from Baseline Median: −5.0
  AST (SGOT) Median: 28.0
  TOTAL BILIRUBIN Change from Baseline Median: −1.0
  TOTAL BILIRUBIN Median: 7.0
DW8
  ALKALINE PHOSPHATASE Change from Baseline Median: −20.0
  ALT (SGPT) Change from Baseline Median: −8.0
  AST (SGOT) Change from Baseline Median: −5.0
  AST (SGOT) Median: 28.0
  TOTAL BILIRUBIN Change from Baseline Median: −1.0
  TOTAL BILIRUBIN Median: 7.0
DW12
  ALT (SGPT) Change from Baseline Median: −11.0
  ALT (SGPT) Median: 35.0
  AST (SGOT) Change from Baseline Median: −3.5
  TOTAL BILIRUBIN Change from Baseline Median: 0.0
  TOTAL BILIRUBIN Median: 7.0
DW16
  ALT (SGPT) Change from Baseline Median: −10.0
  ALT (SGPT) Median: 30.0
  AST (SGOT) Change from Baseline Median: −4.0
  AST (SGOT) Median: 30.0
  TOTAL BILIRUBIN Change from Baseline Median: −0.5
  TOTAL BILIRUBIN Median: 7.5
DW20
  ALKALINE PHOSPHATASE Change from Baseline Median: −23.0
  ALT (SGPT) Change from Baseline Median: −9.0
  ALT (SGPT) Median: 29.0
  AST (SGOT) Change from Baseline Median: −2.5
  AST (SGOT) Median: 30.0
  TOTAL BILIRUBIN Change from Baseline Median: 0.0
  TOTAL BILIRUBIN Median: 7.0
DW 24
  ALKALINE PHOSPHATASE Change from Baseline Median: −21.0
  ALT (SGPT) Change from Baseline Median: −4.0
  ALT (SGPT) Median: 37.0
  AST (SGOT) Change from Baseline Median: −3.0
  AST (SGOT) Median: 32.0
  TOTAL BILIRUBIN Change from Baseline Median: 0.0
  TOTAL BILIRUBIN Median: 9.0
Week 4
  ALKALINE PHOSPHATASE change from baseline <−5%, number of patients: 17
  ALKALINE PHOSPHATASE change from baseline <−5%, percent of patients: (53.1%)
  ALKALINE PHOSPHATASE change from baseline >5%, number of patients: 11
  ALKALINE PHOSPHATASE change from baseline >5%, percent of patients: (34.4%)
  ALKALINE PHOSPHATASE change from baseline −5% <= and <=5%, number of patients: 4
  ALKALINE PHOSPHATASE change from baseline −5% <= and <=5%, percent of patients: (12.5%)
  ALT (SGPT) change from baseline <−5%, number of patients: 20
  ALT (SGPT) change from baseline <−5%, percent of patients: (62.5%)
  ALT (SGPT) change from baseline >5%, number of patients: 10
  ALT (SGPT) change from baseline >5%, percent of patients: (31.3%)
  ALT (SGPT) change from baseline −5% <= and <=5%, number of patients: 2
  ALT (SGPT) change from baseline −5% <= and <=5%, percent of patients: (6.3%)
  AST (SGOT) change from baseline <−5%, number of patients: 17
  AST (SGOT) change from baseline <−5%, percent of patients: (53.1%)
  AST (SGOT) change from baseline >5%, number of patients: 10
  AST (SGOT) change from baseline >5%, percent of patients: (31.3%)
  AST (SGOT) change from baseline −5% <= and <=5%, number of patients: 4
  AST (SGOT) change from baseline −5% <= and <=5%, percent of patients: (12.5%)
  TOTAL BILIRUBIN change from baseline <−5%, number of patients: 16
  TOTAL BILIRUBIN change from baseline <−5%, percent of patients: (50.0%)
  TOTAL BILIRUBIN change from baseline >5%, number of patients: 12
  TOTAL BILIRUBIN change from baseline >5%, percent of patients: (37.5%)
  TOTAL BILIRUBIN change from baseline −5% <= and <=5%, number of patients: 3
  TOTAL BILIRUBIN change from baseline −5% <= and <=5%, percent of patients: (9.4%)
Week 8
  ALKALINE PHOSPHATASE change from baseline <−5%, number of patients: 24
  ALKALINE PHOSPHATASE change from baseline <−5%, percent of patients: (75.0%)
  ALKALINE PHOSPHATASE change from baseline >5%, number of patients: 5
  ALKALINE PHOSPHATASE change from baseline >5%, percent of patients: (15.6%)
  ALKALINE PHOSPHATASE change from baseline −5% <= and <=5%, number of patients: 2
  ALKALINE PHOSPHATASE change from baseline −5% <= and <=5%, percent of patients: (6.3%)
  ALT (SGPT) change from baseline <−5%, number of patients: 20
  ALT (SGPT) change from baseline <−5%, percent of patients: (62.5%)
  ALT (SGPT) change from baseline >5%, number of patients: 8
  ALT (SGPT) change from baseline >5%, percent of patients: (25.0%)
  ALT (SGPT) change from baseline −5% <= and <=5%, number of patients: 2
  ALT (SGPT) change from baseline −5% <= and <=5%, percent of patients: (6.3%)
  AST (SGOT) change from baseline <−5%, number of patients: 21
  AST (SGOT) change from baseline <−5%, percent of patients: (65.6%)
  AST (SGOT) change from baseline >5%, number of patients: 5
  AST (SGOT) change from baseline >5%, percent of patients: (15.6%)
  AST (SGOT) change from baseline −5% <= and <=5%, number of patients: 4
  AST (SGOT) change from baseline −5% <= and <=5%, percent of patients: (12.5%)
  TOTAL BILIRUBIN change from baseline <−5%, number of patients: 16
  TOTAL BILIRUBIN change from baseline <−5%, percent of patients: (50.0%)
  TOTAL BILIRUBIN change from baseline >5%, number of patients: 7
  TOTAL BILIRUBIN change from baseline >5%, percent of patients: (21.9%)
  TOTAL BILIRUBIN change from baseline −5% <= and <=5%, number of patients: 6
  TOTAL BILIRUBIN change from baseline −5% <= and <=5%, percent of patients: (18.8%)
Week 12
  ALKALINE PHOSPHATASE change from baseline <−5%, number of patients: 19
  ALKALINE PHOSPHATASE change from baseline <−5%, percent of patients: (59.4%)
  ALKALINE PHOSPHATASE change from baseline >5%, number of patients: 10
  ALKALINE PHOSPHATASE change from baseline >5%, percent of patients: (31.3%)
  ALKALINE PHOSPHATASE change from baseline −5% <= and <=5%, number of patients: 1
  ALKALINE PHOSPHATASE change from baseline −5% <= and <=5%, percent of patients: (3.1%)
  ALT (SGPT) change from baseline <−5%, number of patients: 20
  ALT (SGPT) change from baseline <−5%, percent of patients: (62.5%)
  ALT (SGPT) change from baseline >5%, number of patients: 7
